# Measurements reported in patent US7420056B2, “Substituted bicyclic imidazo-3-ylamine compounds” (Gruenenthal GmbH, priority 2004, dated 2008).
# Counter-ions that a name gives are not always drawn.
# Biological target: mGluR5 receptor (Sus scrofa, UniProt I3LUI7)
# Assay: Affinity for the mGluR5 receptor: inhibition of 3[H]-MPEP binding in pig brain homogenate
# Conditions: 3[H]-MPEP binding
# Method in brief: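 Test compounds were screened at 10 μM for displacement of 5 nM [3H]-MPEP from pig brain homogenate (450 μg protein, pH 8.0 Hepes buffer) over 60 min at room temperature. After filtration, scintillation counting gave the read-out. 10 μM unlabelled MPEP set nonspecific binding.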
# Sequence of mGluR5 receptor (I3LUI7 19-1212): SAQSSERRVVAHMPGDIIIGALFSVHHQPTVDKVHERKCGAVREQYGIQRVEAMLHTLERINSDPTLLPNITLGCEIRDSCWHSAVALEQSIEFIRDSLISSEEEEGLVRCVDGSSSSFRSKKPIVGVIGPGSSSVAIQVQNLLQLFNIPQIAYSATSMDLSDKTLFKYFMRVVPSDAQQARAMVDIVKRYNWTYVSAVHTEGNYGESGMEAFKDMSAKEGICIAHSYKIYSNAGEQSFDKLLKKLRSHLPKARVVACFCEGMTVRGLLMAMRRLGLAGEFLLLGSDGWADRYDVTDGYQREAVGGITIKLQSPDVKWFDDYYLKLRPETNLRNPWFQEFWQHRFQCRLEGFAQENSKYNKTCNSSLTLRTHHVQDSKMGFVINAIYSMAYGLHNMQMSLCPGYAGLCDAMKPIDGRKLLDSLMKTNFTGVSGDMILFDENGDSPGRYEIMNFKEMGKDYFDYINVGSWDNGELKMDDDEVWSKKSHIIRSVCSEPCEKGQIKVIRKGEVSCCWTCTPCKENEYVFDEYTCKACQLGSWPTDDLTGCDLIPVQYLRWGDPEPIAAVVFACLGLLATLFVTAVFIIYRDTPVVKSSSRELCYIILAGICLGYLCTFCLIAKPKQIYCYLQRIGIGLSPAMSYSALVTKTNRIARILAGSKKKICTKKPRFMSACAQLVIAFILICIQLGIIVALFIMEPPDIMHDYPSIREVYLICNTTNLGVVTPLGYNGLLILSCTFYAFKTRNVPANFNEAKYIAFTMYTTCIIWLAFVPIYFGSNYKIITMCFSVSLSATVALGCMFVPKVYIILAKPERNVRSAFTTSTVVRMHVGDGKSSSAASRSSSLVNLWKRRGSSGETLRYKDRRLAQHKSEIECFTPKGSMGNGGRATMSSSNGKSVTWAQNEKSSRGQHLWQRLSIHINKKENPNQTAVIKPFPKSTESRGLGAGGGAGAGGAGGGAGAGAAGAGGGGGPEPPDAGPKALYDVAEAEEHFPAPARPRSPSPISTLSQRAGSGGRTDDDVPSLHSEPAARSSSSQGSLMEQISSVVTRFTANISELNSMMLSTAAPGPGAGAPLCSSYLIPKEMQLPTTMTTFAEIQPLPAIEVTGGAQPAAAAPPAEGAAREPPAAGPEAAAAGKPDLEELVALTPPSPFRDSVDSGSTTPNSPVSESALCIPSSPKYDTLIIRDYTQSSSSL
row,IC50,Compound
1,7740 nM,"CC(C)(C)Nc1c(-c2ccc(C#Cc3ccccc3)s2)nc2ccc3ccccc3n12 [Example 115, N-tert-butyl-2-(5-(phenylethynyl)thiophen-2-yl)imidazo[1,2-a]quinolin-1-amine]"
2,3630 nM,"CC(C)(C)Nc1c(-c2ccc(C#Cc3ccccc3)s2)nc2c(C(=O)O)nccn12 [Example 120, 3-(tert-butylamino)-2-(5-(phenylethynyl)thiophen-2-yl)imidazo[1,2-a]pyrazine-8-carboxylic acid]"
3,2540 nM,"CC(C)(C)Nc1c(-c2ccc(C#Cc3ccc(O)cc3)s2)nc2cnccn12 [Example 121, 4-((5-(3-(tert-butylamino)imidazo[1,2-a]pyrazin-2-yl)thiophen-2-yl)ethynyl)phenol hydrochloride]"
4,170 nM,"CC(C)(C)Nc1c(-c2ccc(C#Cc3ccccc3N)s2)nc2cnccn12 [Example 124, 2-(5-((2-aminophenyl)ethynyl)thiophen-2-yl)-N-tert-butylimidazo[1,2-a]pyrazin-3-amine hydrochloride]"
5,6520 nM,"CC(C)(C)Nc1c(-c2ccc(C#Cc3ccccc3)s2)nc2c3ccccc3ccn12 [Example 125, N-tert-butyl-2-(5-(phenylethynyl)thiophen-2-yl)imidazo[2,1-a]isoquinolin-3-amine]"

# Further lines, the compound ahead of its results:
row,Compound,IC50
1,"CC(C)(C)Nc1c(-c2cccc(C#Cc3ccccn3)c2)nc2cnccn12 [Example 111, N-tert-butyl-2-(3-(pyridin-2-ylethynyl)phenyl)imidazo[1,2-a]pyrazin-3-amine]",1370 nM
2,"COc1ccccc1C#Cc1ccc(-c2nc3cnccn3c2NC(C)(C)C)s1 [Example 112, N-tert-butyl-2-(5-((2-methoxyphenyl)ethynyl)thiophen-2-yl)imidazo[1,2-a]pyrazin-3-amine hydrochloride]",7520 nM
3,"COc1cccc(C#Cc2ccc(-c3nc4cnccn4c3NC(C)(C)C)s2)c1 [Example 113, N-tert-butyl-2-(5-((3-methoxyphenyl)ethynyl)thiophen-2-yl)imidazo[1,2-a]pyrazin-3-amine hydrochloride]",75 nM
4,"COc1ccc(C#Cc2ccc(-c3nc4cnccn4c3NC(C)(C)C)s2)cc1 [Example 114, N-tert-butyl-2-(5-((4-methoxyphenyl)ethynyl)thiophen-2-yl)imidazo[1,2-a]pyrazin-3-amine hydrochloride]",2110 nM
5,"Cc1cccc(C#Cc2cccc(-c3nc4cnccn4c3NC(C)(C)C)c2)n1 [Example 117, N-tert-butyl-2-(3-((6-methylpyridin-2-yl)ethynyl)phenyl)imidazo[1,2-a]pyrazin-3-amine]",880 nM
6,"Cc1nc(C#Cc2ccccc2)ccc1-c1nc2cnccn2c1NC(C)(C)C [Example 118, N-tert-butyl-2-(2-methyl-6-(phenylethynyl)pyridin-3-yl)imidazo[1,2-a]pyrazin-3-amine]",6380 nM
7,"CC(C)(C)Nc1c(-c2ccc(C#Cc3ccccn3)o2)nc2cnccn12 [Example 119, N-tert-butyl-2-(5-(pyridin-2-ylethynyl)furan-2-yl)imidazo[1,2-a]pyrazin-3-amine]",36 nM
8,"CC(C)(C)Nc1c(-c2ccc(C#Cc3cccc(O)c3)s2)nc2cnccn12 [Example 122, 3-((5-(3-(tert-butylamino)imidazo[1,2-a]pyrazin-2-yl)thiophen-2-yl)ethynyl)phenol]",130 nM
9,"CC(C)(C)Nc1c(-c2ccc(C#Cc3cccc(N)c3)s2)nc2cnccn12 [Example 123, 2-(5-((3-aminophenyl)ethynyl)thiophen-2-yl)-N-tert-butylimidazo[1,2-a]pyrazin-3-amine hydrochloride]",14 nM
10,"CC(C)(C)Nc1c(-c2ccc(C#Cc3ccccc3)nc2)nc2cnccn12 [Example 126, N-tert-butyl-2-(6-(phenylethynyl)pyridin-3-yl)imidazo[1,2-a]pyrazin-3-amine]",3250 nM
11,"CC(C)(C)Nc1c(-c2ccc(C#Cc3ccc(N)nc3)s2)nc2cnccn12 [Example 128, 2-(5-((6-aminopyridin-3-yl)ethynyl)thiophen-2-yl)-N-tert-butylimidazo[1,2-a]pyrazin-3-amine hydrochloride]",15600 nM
